Measured values published in US20030229066A1, “Novel heterocyclic urea derivatives and their use as dopamine D3 receptor ligands” (priority 2001, published 2003).
pKi: −log10 of the molar value.

target: T1, cloned human dopamine D3 receptors (Homo sapiens, UniProt P35462); test: [N-Methyl-3H]Spiroperidol binding to cloned human dopamine D3 receptors; conditions: not given
T1 construct: expressed in transfected cells
Excerpt: [N-Methyl-^3H]Spiroperidol Binding to Cloned Human Dopamine D3 Receptors
This assay measures the in vitro activity of compounds on cloned human dopamine (D3) receptors and predicts the direct dopamine-blocking properties of putative neuropsychiatric agents at human dopamine D3 receptors.
The D3 gene was isolated from a human striatal cDNA library (Stratagene). The gene was sequenced and sub-cloned into the expression vector RC/RSV (Invitrogen). CHO (Chinese Hamster Ovary) cells were stably transfected with 10 μg of the D3/RSV plasmid using the DOTAP method from Boehringer Mannheim and 72 clones that were G418 resistant were isolated. Using mRNA and binding displacement data a single high expressing clone was identified. This clone was then grown in large batches for the purpose of developing a 96 well format assay.
The cells are harvested into 250 ml centrifuge tubes with 100 volumes of cold phosphate buffered saline (PBS) and spun down (1200×G for 10 min at 4° C.). The medium is removed and 100 ml PBS are added to each centrifuge tube, cells are resuspened and spun down again. The PBS is removed and the final pellet is homogenized in an appropriate volume of 10% DMSO with a polytron on ice at a medium setting.
For Kj determinations: [^3H]NMSP is made up to a concentration of 2.7 nM in buffer 2b, such that when 150 μl is added to each tube a final concentration of 0.4 nM is attained in the 1 ml assay. Samples of total CPM added are taken for each experiment to calculate the total ligand concentration.
5. S(-)-Eticlopride is obtained from Research Biochemicals International (RBI catalog number E-101). A refrigerated stock (good for up to a month) solution of S(-)-eticlopride is made at a concentration of 30 μM in buffer 2b. One hundred microliters are added to 3 wells for the determination of nonspecific binding (this yields a final concentration of 3 μM in the 1 ml assay).
For most assays, a 100 μM stock solution of the test compound is made up in a suitable solvent (usually <0.1% acetic acid) and serially diluted with buffer 2b, such that when 100 μl of drug is combined with the total 1 ml assay, final concentrations ranging from 10^−5-10^−8 M are attained. Characteristically eight concentrations are studied for each assay; however, higher or lower concentrations may be used, depending on the potency of the drug.
The 96-Well Packard Unifilters GF/B are incubated for >1 h at 25° C. in 0.1% polyethylamine (from 3,b). The cold tissue is added last and mixed on a orbital shaker for a few seconds and is then incubated at 37° C. for 30 min in a shaking water bath. The assay is stopped by rapid filtration through Packard Unifilter plates. The filter membranes are then washed with 15 ml of ice-cold 0.05 M Tris buffer. The filters are then dried (˜15 min under a heat lamp or incubated for 15 min in a 60° C. oven) and a bottom seal is applied. Then 40 μl of Packard Microscint 20 scintillation cocktail is added and a permanent topseal (Type P) is applied and heat sealed. The plates are then shaken on an orbital shaker for 1 h and placed in the Packard Topcount and counted for at least 5 minutes for each point.
Specific binding is defined as the difference between total binding and the binding in the presence of 3 μM S-(-)-eticlopride. Total binding is approximately 10% of the total added ligand. Cheng-Prusoff determination (Kj's) are performed using Prism software using a one-site competition curve analysis where the top and the bottom of the non-linear regression are held constant at 0% and 100% percent inhibition. The percent inhibition at each drug concentration is the mean of duplicate determinations.

T1 sequence (P35462 whole entry): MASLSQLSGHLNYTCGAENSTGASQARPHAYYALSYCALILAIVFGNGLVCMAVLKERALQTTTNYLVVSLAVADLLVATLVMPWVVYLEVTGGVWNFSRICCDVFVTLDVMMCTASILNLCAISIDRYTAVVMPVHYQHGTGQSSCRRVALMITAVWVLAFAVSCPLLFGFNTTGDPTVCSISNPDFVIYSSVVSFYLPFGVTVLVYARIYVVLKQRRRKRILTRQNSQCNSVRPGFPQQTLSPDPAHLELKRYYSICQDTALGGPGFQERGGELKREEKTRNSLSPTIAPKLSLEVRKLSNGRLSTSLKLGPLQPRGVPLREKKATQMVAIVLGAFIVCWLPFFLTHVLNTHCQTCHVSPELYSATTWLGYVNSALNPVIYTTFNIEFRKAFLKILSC

Compound | pKi
CC(=O)c1ccc(NC(=O)NCCCCN2C3CCC2CC(c2noc4cc(F)ccc24)C3)cc1 (centres unmarked) [compound 817228] | 6.75
O=C(NCCCCN1C2CCC1CC(c1noc3cc(F)ccc13)C2)Nc1ccccc1F (centres unmarked) [compound 817229] | 6.44
O=C(NCCCCN1C2CCC1CC(c1noc3cc(F)ccc13)C2)Nc1ccc(-c2ccccc2)cc1 (centres unmarked) [compound 817230] | 6.74
O=C(NCCCCN1C2CCC1CC(c1noc3cc(F)ccc13)C2)Nc1cccc(C(F)(F)F)c1 (centres unmarked) [compound 817231] | 6.36
Cc1ccc(NC(=O)NCCCCN2C3CCC2CC(c2noc4cc(F)ccc24)C3)cc1 (centres unmarked) [compound 817234] | 6.59
O=C(NCCCCN1CCN(c2n[nH]c3ccsc23)CC1)Nc1ccc(C(F)(F)F)cc1 [compound 825154] | 7.45
O=C(NCCCCN1CCN(c2n[nH]c3ccsc23)CC1)Nc1ccc(OC(F)(F)F)cc1 [compound 825155] | 7.07
CCOc1ccc(NC(=O)NCCCCN2CCN(c3n[nH]c4ccsc34)CC2)cc1 [compound 825156] | 7.20
O=C(NCCCCN1CCN(c2nn(C(=O)Nc3ccccc3C(F)(F)F)c3ccsc23)CC1)Nc1ccccc1C(F)(F)F [compound 825160] | 6.69
O=C(NCCCCN1CCN(c2nn(C(=O)Nc3ccc(OC(F)(F)F)cc3)c3ccsc23)CC1)Nc1ccc(OC(F)(F)F)cc1 [compound 825167] | 6.43
CCOc1ccc(NC(=O)NCCCCN2CCN(c3nn(C(=O)Nc4ccc(OCC)cc4)c4ccsc34)CC2)cc1 [compound 825168] | 7.32
O=C(NCCCCN1CCN(c2cn(C(=O)Nc3ccc(F)cc3)c3ccsc23)CC1)Nc1ccc(F)cc1 [compound 825170] | 6.87
O=C(NCCCCN1CCN(c2nn(C(=O)Nc3ccc(F)cc3F)c3ccsc23)CC1)Nc1ccc(F)cc1F [compound 825171] | 6.30
O=C(NCCCCN1CCCN(c2csc3cc(F)ccc23)CC1)Nc1ccc(Cl)c(Cl)c1 [compound 829191] | 7.37
Cc1cccc(NC(=O)NCCCCN2CCCN(c3csc4cc(F)ccc34)CC2)c1 [compound 829192] | 8.39
O=C(NCCCCN1CCCN(c2csc3cc(F)ccc23)CC1)Nc1cccc(Cl)c1 [compound 829193] | 8.10
O=C(NCCCCN1CCCN(c2csc3cc(F)ccc23)CC1)Nc1ccc(C(F)(F)F)cc1 [compound 829195] | 7.68

Compound | pKi
O=C(NCCCCN1CCCN(c2csc3cc(F)ccc23)CC1)Nc1cccc(Br)c1 [compound 829196] | 7.96
O=C(NCCCCN1CCCN(c2csc3cc(F)ccc23)CC1)Nc1ccc(OC(F)(F)F)cc1 [compound 829197] | 7.46
O=C(NCCCCN1CCCN(c2csc3cc(F)ccc23)CC1)Nc1cc(C(F)(F)F)cc(C(F)(F)F)c1 [compound 829198] | 7.18
O=C(NCCCCN1CCCN(c2csc3cc(F)ccc23)CC1)Nc1ccc(Cl)c(C(F)(F)F)c1 [compound 829200] | 7.32
O=C(NCCCCN1CCCN(c2csc3cc(F)ccc23)CC1)Nc1cc(Cl)cc(Cl)c1 [compound 829202] | 7.78
Cc1ccc(NC(=O)NCCCCN2CCCN(c3csc4cc(F)ccc34)CC2)cc1 [compound 829203] | 8.25
CSc1ccc(NC(=O)NCCCCN2CCCN(c3csc4cc(F)ccc34)CC2)cc1 [compound 829204] | 8.30
CC(=O)c1cccc(NC(=O)NCCCCN2CCCN(c3csc4cc(F)ccc34)CC2)c1 [compound 829206] | 8.60
CC(C)c1ccc(NC(=O)NCCCCN2CCCN(c3csc4cc(F)ccc34)CC2)cc1 [compound 829207] | 6.85
COc1cc(NC(=O)NCCCCN2CCCN(c3csc4cc(F)ccc34)CC2)cc(OC)c1OC [compound 829210] | 8.70
O=C(NCCCCN1CCCN(c2csc3cc(F)ccc23)CC1)Nc1cc(C(F)(F)F)ccc1F [compound 829211] | 7.80
O=C(NCCCCN1CCCN(c2csc3cc(F)ccc23)CC1)Nc1c(F)cccc1C(F)(F)F [compound 829212] | 7.30
O=C(NCCCCN1CCCN(c2csc3cc(F)ccc23)CC1)Nc1ccc(F)c(C(F)(F)F)c1 [compound 829213] | 6.74
O=C(NCCCCN1CCCN(c2csc3cc(F)ccc23)CC1)Nc1ccc(Cl)cc1 [compound 829214] | 7.85
O=C(NCCCCN1CCCN(c2csc3cc(F)ccc23)CC1)Nc1ccc(F)cc1 [compound 829215] | 8.18
O=C(NCCCCN1CCCN(c2csc3cc(F)ccc23)CC1)Nc1ccccc1F [compound 829216] | 9.75

same assay, conditions: Table III; read-out: d3Ki

Compound | pKi
O=C(NCCCCN1CCC(c2noc3ccsc23)CC1)NC12CC3CC(CC(C3)C1)C2 [compound 816210] | 6.73
CC(=O)c1ccc(NC(=O)NCCCCN2CCN(c3c(-c4ccccc4)sc4cc(F)ccc34)CC2)cc1 [compound 816226] | 6.74
O=C(NCCCCN1CCN(c2c(-c3ccccc3)sc3cc(F)ccc23)CC1)NC1CCCCC1 [compound 816232] | 8.23
O=C(NCCCCN1CCC(c2noc3ccsc23)CC1)Nc1ccc(F)c([N+](=O)[O-])c1 [compound 816557] | 7.68
O=C(NCCCCN1CCC(c2noc3ccsc23)CC1)Nc1ccc(Cl)c([N+](=O)[O-])c1 [compound 816559] | 7.88
O=C(NCCCCN1CCC(c2noc3ccsc23)CC1)Nc1ccc([N+](=O)[O-])cc1 [compound 816562] | 8.16
CCCCOc1ccc(NC(=O)NCCCCN2CCC(c3noc4ccsc34)CC2)cc1 [compound 816564] | 7.25
O=C(NCCCCN1CCC(c2noc3ccsc23)CC1)Nc1ccc(Cl)cc1Cl [compound 816566] | 7.02
COc1ccc(NC(=O)NCCCCN2CCC(c3noc4ccsc34)CC2)c(OC)c1 [compound 816567] | 7.13
CCOc1ccccc1NC(=O)NCCCCN1CCC(c2noc3ccsc23)CC1 [compound 816764] | 7.07
O=C(NCCCCN1CCC(c2noc3ccsc23)CC1)Nc1c(F)cccc1F [compound 816766] | 7.37
COc1ccc(NC(=O)NCCCCN2CCC(c3noc4ccsc34)CC2)c(OC)c1 [compound 816767] | 7.22
O=C(NCCCCN1CCC(c2noc3ccsc23)CC1)Nc1ccc(Cl)cc1Cl [compound 816769] | 7.24
COc1cc(Cl)c(NC(=O)NCCCCN2CCC(c3noc4ccsc34)CC2)c(OC)c1 [compound 816770] | 7.55
COc1c(Cl)cccc1NC(=O)NCCCCN1CCC(c2noc3ccsc23)CC1 [compound 816771] | 7.13
CCOc1ccccc1NC(=O)NCCCCN1CCC(c2noc3ccsc23)CC1 [compound 816876] | 7.33
O=C(NCCCCN1CCC(c2noc3ccsc23)CC1)Nc1c(F)cccc1F [compound 816878] | 7.47
COc1ccc(NC(=O)NCCCCN2CCC(c3noc4ccsc34)CC2)c(OC)c1 [compound 816879] | 7.33
O=C(NCCCCN1CCC(c2noc3ccsc23)CC1)Nc1cc(C(F)(F)F)cc(C(F)(F)F)c1 [compound 816881] | 7.62
COc1cc(Cl)c(NC(=O)NCCCCN2CCC(c3noc4ccsc34)CC2)c(OC)c1 [compound 816882] | 7.23
COc1c(Cl)cccc1NC(=O)NCCCCN1CCC(c2noc3ccsc23)CC1 [compound 816883] | 7.45
O=C(NCCCCN1CCC(c2noc3ccsc23)CC1)NCc1ccc(Cl)cc1Cl [compound 816968] | 7.62
COc1ccc(NC(=O)NCCCCN2CCC(c3noc4ccsc34)CC2)c(OC)c1 [compound 818310] | 6.88
